Test results as given in patent publication US9321804B2, “Synthesis and use of anti-tumor drug LQC-Y” (Beijing University of Chinese Medicine, priority 2011, dated 2016).
Entries after “also recorded” stand apart in the source; their conditions may differ.

Assays:
[1] = test system: Human hepatoma carcinoma cells Bel7402; test: Proliferation of human hepatoma carcinoma cells Bel7402 by MTT; type: cell-based; settings: 40 μg/ml
S180 sarcoma of mice = test: Tumor inhibiting effect of LQC-Y2 in tumor bearing S180 mice; settings: for Tumor inhibiting ratio (%) / Tumor weight: S180 Balb/C mice, 15 days
Method: The S180 mice that had been inoculated for 7 days were killed by breaking the neck thereof and ascites was taken from the mice respectively in an aseptic environment and the ascites was washed using RPMI1640 culture medium for 2 times and then made into a […] /ml cell suspension using aseptic physiological saline. Then the obtained S180 cell suspension was inoculated hypodermically at the right axillary of mice, 0.1 ml for each mouse and 50 mice total, to establish the solid tumor model.
60 mice were divided into 2 categories, including 6 groups, according to the random number table method, i.e. normal control group of the first category, and S180 solid tumor groups of the second category which included positive (cyclophosphamide) control group, negative control group, small dosage group, middle dosage group and large dosage group, 10 mice for each group. The experiment was repeated for 3 times.
LQC-Y2 was made into an emulsion using corn oil. The dosage of the small dosage group was 75 mg/Kg, the dosage of the middle dosage group was 150 mg/Kg, and the dosage of the large dosage group was 300 mg/kg. Equal volume of corn oil was injected into the mice of the negative control group, cyclophosphamide injection 0.02 g/(Kg.d) was injected into the mice of the positive control group. These medicines were administrated 0.1 ml per mouse by intraperitoneal injection every the other day continuously for 15 days. During this period, the common behavior, hair and excrement and so on were observed daily. The mice that had been inoculated with S180 by hypodermic inoculation were killed by breaking the necks thereof after 24 h after the last administration and the tumor, liver and spleen were then taken.
The weight of the solid tumor group mice were measured after all the administration was over and then the mice were killed. The spleens and the livers thereof were weighed by an electronic balance. The spleen index was calculated as the spleen weight of a mouse (mg)/the body weight of a mouse(g) and the liver index was calculated as the liver weight of a mouse[…]/the body weight of a mouse(g).
The solid tumor negative control group mice were weighed on the next day after the administration was finished (the eyeballs of the mice were removed to bleed and the serum was collected for subsequent experimental use). Then the mice were killed by breaking the neck thereof. The tumor tissues were taken out and weighed by an electronic balance to calculate the tumor-inhibiting ratio.
All the data were statistically analyzed using SPSS11.0 software pack. The comparison of the enumeration data was carried out with X^2 test. P<0.05 had statistical significance.

[2] = test system: Human hepatoma carcinoma cells Bel7402; test: Proliferation of human hepatoma carcinoma cells Bel7402 by MTT; type: cell-based; settings: for 24 h inhibition ratio (%): Bel7402 cells
Method: Human hepatoma carcinoma cells Bel7402 were recovered and subcultured using a culture flask. The preparation of the experiment was started when the cell growth entered into the exponential growth phase. The cells were then digested using pancreatic enzyme which had been filtrated at an increased pressure to prepare the cell suspension. After that the suspension was dyed for 3 min with 0.4% trypan blue. Then a blood cell counting plate was used to count the living cells which were not dyed and the dead cells which were dyed to blue. The number of the living cells identified by trypan blue was more than 98%.
Three kinds of cells which were in the exponential growth phase were inoculated at the density of 1×10^4/ml, to a 96-well plate, 200 μl for each well. Then the plate was put in a 37° C. 5% CO2 incubation box to be cultured for 24 h. The cultivation liquid was sucked away and 200 μl LQC-Y solutions of different concentrations were added thereinto (prepared with DMEM cultivation liquid containing 4% calf serum and the final concentration of which respectively were 10 μg, 20 μg, 40 μg), 4 parallel wells for each concentration. Supernatant cultivation liquid 100 μl was sucked away carefully from each well after being cultured for 24 h and 48 h, and MTS 20 μl was added into each well and homogeneously mixed. The resultant liquid was cultured in a 37° C. 5% CO2 incubation box for a further 1 h. An enzyme-labeling quantitative instrument was used to measure the absorbance at 492 nm. The experiment was repeated for 3 times and then an inhibition ratio was calculated.
The inhibition ratio of cell proliferation (%)=[(average OD value of control group-average OD value of the administration group)/average OD value of control group]×100%

[3] = test system: small vessel growth of CAM model; test: Effect of LQC-Y on tumor angiogenesis using CAM method (small vessel count); type: in vivo, chicken; settings: compared with the blank group
Method: Aseptic gelatin sponge, which was made into a wafer having a diameter of 5 mm by a hole-puncher in advance, was used as sample carrier. The prepared derivatives of bromotetramethylpyrazine series were added thereinto in an aseptic environment and different dosage groups were set according to the difference of the molecular weight of each medicine, including 10 μg/chicken embryo, 20 μg/chicken embryo and 40 μg/chicken embryo. The 0.9% physiological saline was used in a blank group. The samples were air-dried in an aseptic environment.
A hatching egg after disinfection was put into a 37° C. incubation box with air sac upward until the seventh day of incubation. The egg embryo was disinfected using alcohol at a super clean bench, and then a small hole was drilled at the top of the egg embryo using a dental drill, and the nearby egg shell and shell membrane were removed carefully to form a opening with the size of about 1.2 cm×1.2 cm. […]
After the incubation, the transparent tape blocking the chicken embryo air sac was softly removed with a nipper. […] The effect of the compounds on angiogenesis was evaluated by the count analytic method using the numbers of great vessels, medium vessels and small vessels arranged radially around the carrier. […]

[4] = large dosage 300 mg/kg i.p. every other day
[5] = middle dosage 150 mg/Kg i.p. every other day
[6] = small dosage 75 mg/Kg i.p. every other day

Structure (SMILES): Cc1nc(C)c(COC(=O)CCC(C)C2CCC3C4CCC5CC(O)CCC5(C)C4CC(O)C23C)nc1C (stereo not shown) [LQC-Y2, (3,5,6-trimethyl pyrazine-2-yl)methyl-4-(3,12-dihydroxy-10,13-dimethylhexadecahydro-1H-cyclopenta[a]phenanthren-17-yl)pentanoate]
- 24 h inhibition ratio (%) [1]: 66.98%
- effect on the growth of the sarcoma of S180 mice (S180 sarcoma of mice; 75-300 mg/kg i.p.): Some Effect on Inhibiting the Growth; also recorded: inhibit the growth of S180 tumor effectively
- Tumor inhibiting ratio (%) (S180 sarcoma of mice; [4]): 29.15%
- Tumor weight (S180 sarcoma of mice; [4]): 0.92 ± 0.49 g
- Tumor inhibiting ratio (%) (S180 sarcoma of mice; [5]): 35.88%
- Tumor weight (S180 sarcoma of mice; [5]): 0.84 ± 0.53 g
- Tumor inhibiting ratio (%) (S180 sarcoma of mice; [6]): 6.87%
- Tumor weight (S180 sarcoma of mice; [6]): 1.22 ± 0.62 g
- effect on the growth of the S180 sarcoma mice's weight (S180 sarcoma of mice; mouse, in vivo): no effect
- 24 h inhibition ratio (%) ([2]; 10 μg/ml): 20.09%
- 24 h inhibition ratio (%) ([2]; 20 μg/ml): 61.2%
- inhibiting effect on the proliferation of Bel7402 cells ([2]; cultured in vitro, 10-40 μg/ml): evident inhibiting effect
- vessel growth inhibiting effect [3]: significant inhibiting effect; also recorded: magnificent inhibiting effect
